In patent US9434711B2 (Janssen Pharmaceutica, NV, priority 2007, dated 2016):
Read-outs that look alike come from different tables or passages of the source.

Molecular target: canine TRPM8 (Canis lupus familiaris, UniProt Q1A7N1)
Test: In Vitro Canine TRPM8 Functional Assay (Ca2+ fluorescence, icilin activation)
Assay type: cell-based
Conditions: for IC50: read-out: IC50
Procedure, shortened: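 HEK293 cells stably expressing canine TRPM8 loaded with Calcium 3 dye; compound added and Ca2+ fluorescence monitored 5 min before icilin at a final level giving ~80% maximal response, read on FLIPR or FDSS. EC50 or IC50 from eight-point dose-response, quadruplicate wells per point.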

[1] = compound at 0.2 μM, canine TRPM8, icilin activation, read-out: % Inh @ 0.2
[2] = HEK293 cells stably expressing canine TRPM8, icilin activation, eight-point dose-response
[3] = 0.2 μM compound, HEK293 cells stably expressing canine TRPM8, icilin activation, read-out: % Inh @ 0.2
[4] = HEK293 cells stably expressing canine TRPM8, icilin activation, average of two or more determinations

canine TRPM8, sequence (Q1A7N1 1-1104): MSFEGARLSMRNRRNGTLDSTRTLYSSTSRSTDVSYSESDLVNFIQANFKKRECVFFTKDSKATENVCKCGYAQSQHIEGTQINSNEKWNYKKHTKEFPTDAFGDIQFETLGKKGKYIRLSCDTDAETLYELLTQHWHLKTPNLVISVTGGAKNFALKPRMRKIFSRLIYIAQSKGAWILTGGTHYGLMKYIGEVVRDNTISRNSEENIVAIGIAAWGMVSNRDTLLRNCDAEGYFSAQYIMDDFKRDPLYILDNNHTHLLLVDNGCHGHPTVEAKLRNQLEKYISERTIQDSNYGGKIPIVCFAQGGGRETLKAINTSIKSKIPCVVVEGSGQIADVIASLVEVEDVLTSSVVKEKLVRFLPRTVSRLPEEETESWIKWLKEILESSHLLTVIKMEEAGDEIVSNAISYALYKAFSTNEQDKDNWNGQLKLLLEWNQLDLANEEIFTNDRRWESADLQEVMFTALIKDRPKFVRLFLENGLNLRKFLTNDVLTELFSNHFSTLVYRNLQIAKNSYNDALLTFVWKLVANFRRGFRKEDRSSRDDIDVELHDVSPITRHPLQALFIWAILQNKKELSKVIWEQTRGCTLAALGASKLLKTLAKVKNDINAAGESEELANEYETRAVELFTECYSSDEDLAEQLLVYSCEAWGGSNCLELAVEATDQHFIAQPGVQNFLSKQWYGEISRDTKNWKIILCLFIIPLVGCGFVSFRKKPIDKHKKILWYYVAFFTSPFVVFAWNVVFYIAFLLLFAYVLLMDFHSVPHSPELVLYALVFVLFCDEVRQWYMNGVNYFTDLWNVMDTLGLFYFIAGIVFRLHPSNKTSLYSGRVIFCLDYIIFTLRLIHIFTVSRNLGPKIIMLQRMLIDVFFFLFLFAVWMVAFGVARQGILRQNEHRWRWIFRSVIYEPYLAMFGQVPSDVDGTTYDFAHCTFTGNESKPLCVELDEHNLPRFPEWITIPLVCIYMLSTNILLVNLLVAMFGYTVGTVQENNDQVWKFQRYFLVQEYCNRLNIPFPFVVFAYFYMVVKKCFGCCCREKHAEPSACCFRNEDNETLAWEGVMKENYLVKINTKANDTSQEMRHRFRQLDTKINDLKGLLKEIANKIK

Cc1c(N(CCC2CC2)S(=O)(=O)c2ccc(C(=O)N[C@@H]3CCNC3)cc2)sc2ccccc12 [Compound 783, (R)-4-[(2-Cyclopropyl-ethyl)-(3-methyl-benzo[b]thiophen-2-yl)-sulfamoyl]-N-pyrrolidin-3-yl-benzamide]
inhibition at 0.2 µM [1]: 38%

Cc1c(N(Cc2ccc(F)c(C(F)(F)F)c2)S(=O)(=O)c2ccc(-c3nsc(=O)[nH]3)cc2)sc2ccccc12 [Compound 784, N-(3-Methyl-benzo[b]thiophen-2-yl)-N-(4-fluoro-3-trifluoromethyl-benzyl)-4-(5-oxo-4,5-dihydro-[1,2,4]thiadiazol-3-yl)-benzenesulfonamide]
IC50 [2]: 3.3 nM | inhibition at 0.2 µM [1]: 102%

Cc1c(N(Cc2ccc(OC(F)(F)F)cc2)S(=O)(=O)c2ccc(-c3nnn[nH]3)cc2)sc2ccccc12 [Compound 785, N-(3-Methyl-benzo[b]thiophen-2-yl)-N-(4-trifluoromethoxy-benzyl)-4-(1H-tetrazol-5-yl)-benzenesulfonamide]
IC50 [2]: 2.2 nM | inhibition at 0.2 µM [1]: 102%

Cc1c(N(CCCCC(F)(F)F)S(=O)(=O)c2ccc(N(C)C)nc2)sc2ccccc12 [Compound 787]
IC50 [2]: 14.9 nM | inhibition at 0.2 µM [1]: 102%

Cc1c(N(CCCCC(F)(F)F)S(=O)(=O)c2cnccc2N2CCOCC2)sc2ccccc12 [Compound 788, N-(3-Methyl-benzo[b]thiophen-2-yl)-N-(5,5,5-trifluoro-pentyl)-4-morpholino-3-pyridyl-sulfonamide]
IC50 [2]: 25.9 nM

Cc1c(N(CCCCC(F)(F)F)S(=O)(=O)c2ccc(N3CCOCC3)nc2)sc2ccccc12 [Compound 788]
inhibition at 0.2 µM [1]: 100%

Cc1c(N(Cc2ccc(OC(F)(F)F)cc2)S(=O)(=O)c2ccc(N(C)C)nc2)sc2ccccc12 [Compound 789]
IC50 [2]: 11.7 nM | inhibition at 0.2 µM [1]: 102%

Cc1c(N(Cc2ccc(OC(F)(F)F)cc2)S(=O)(=O)c2ccc(N3CCOCC3)nc2)sc2ccccc12 [Compound 790]
IC50 [2]: 22 nM | inhibition at 0.2 µM [1]: 101%

COC(=O)CS(=O)(=O)N(Cc1ccc(F)c(C(F)(F)F)c1)c1sc2ccccc2c1C [Compound 791, N-(4-Fluoro-3-trifluoromethyl-benzyl)-N-(3-methyl-benzo[b]thiophen-2-yl)-carbomethoxy-methanesulfonamide]
IC50 [2]: 23.1 nM | inhibition at 0.2 µM [1]: 95%

Cc1c(N(Cc2ccc(F)c(C(F)(F)F)c2)S(=O)(=O)CC(=O)O)sc2ccccc12 [Compound 792, N-(4-Fluoro-3-trifluoromethyl-benzyl)-N-(3-methyl-benzo[b]thiophen-2-yl)-carboxy-methanesulfonamide]
inhibition at 0.2 µM [1]: 23%

Cc1c(N(Cc2ccc(F)c(C(F)(F)F)c2)S(=O)(=O)CCO)sc2ccccc12 [Compound 793, N-(4-Fluoro-3-trifluoromethyl-benzyl)-N-(3-methyl-benzo[b]thiophen-2-yl)-2-hydroxy-ethanesulfonamide]
IC50 [2]: 15.5 nM | inhibition at 0.2 µM [1]: 102%

COC(=O)CCS(=O)(=O)N(Cc1ccc(OC(F)(F)F)cc1)c1sc2ccccc2c1C [Compound 794, N-(3-Methyl-benzo[b]thiophen-2-yl)-N-(4-trifluoromethoxy-benzyl)-2-carbomethoxy-ethanesulfonamide]
IC50 [2]: 29.4 nM | inhibition at 0.2 µM [1]: 101%

Cc1c(N(Cc2ccc(OC(F)(F)F)cc2)S(=O)(=O)CCC(=O)O)sc2ccccc12 [Compound 795, N-(3-Methyl-benzo[b]thiophen-2-yl)-N-(4-trifluoromethoxy-benzyl)-2-carboxy-ethanesulfonamide]
inhibition at 0.2 µM [3]: 100% | IC50 [4]: 24.6 nM

Cc1c(N(Cc2ccc(OC(F)(F)F)cc2)S(=O)(=O)CCC(C)(C)O)sc2ccccc12 [Compound 796, N-(3-Methyl-benzo[b]thiophen-2-yl)-N-(4-trifluoromethoxy-benzyl)-3-hydroxy-3-methyl-butane-1-sulfonamide]
inhibition at 0.2 µM [3]: 101% | IC50 [4]: 24.2 nM

Cc1c(N(Cc2ccc(F)c(C(F)(F)F)c2)S(=O)(=O)CCBr)sc2ccccc12 [Compound 797, N-(4-Fluoro-3-trifluoromethyl-benzyl)-N-(3-methyl-benzo[b]thiophen-2-yl)-2-bromo-ethane-1-sulfonamide]
inhibition at 0.2 µM (HEK293, read-out: % Inh @ 0.2 (μM)): 102% | IC50 [4]: 4.8 nM

Cc1c(N(Cc2ccc(OC(F)(F)F)cc2)S(=O)(=O)c2ccc(N(C)C)cc2)sc2ccccc12 [Compound 799, N-(3-Methyl-benzo[b]thiophen-2-yl)-N-(4-trifluoromethoxy-benzyl)-4-dimethylamino-benzenesulfonamide]
inhibition at 0.2 µM [3]: 102% | IC50 [4]: 3.9 nM

Cc1c(N(Cc2ccc(OC(F)(F)F)cc2)S(=O)(=O)c2ccc(N3CCOCC3)cc2)sc2ccccc12 [Compound 800, N-(3-Methyl-benzo[b]thiophen-2-yl)-N-(4-trifluoromethoxy-benzyl)-4-morpholino-benzenesulfonamide]
inhibition at 0.2 µM [3]: 102% | IC50 [4]: 6.8 nM

Cc1c(N(Cc2ccc(OC(F)(F)F)cc2)S(=O)(=O)c2ccc(-c3noc(=O)[nH]3)cc2)sc2ccccc12 [Compound 801, N-(3-Methyl-benzo[b]thiophen-2-yl)-N-(4-trifluoromethoxy-benzyl)-4-(5-oxo-4,5-dihydro-[1,2,4]oxadiazol-3-yl)-benzenesulfonamide]
inhibition at 0.2 µM [3]: 102% | IC50 [4]: 2.8 nM

CCS(=O)(=O)N(Cc1cc(F)c(F)c(OC)c1F)c1sc2ccccc2c1C(C)(C)O [Compound 802, N-[3-(1-Hydroxy-1-methyl-ethyl)-benzo[b]thiophen-2-yl]-N-(2,4,5-trifluoro-3-methoxy-benzyl)-ethanesulfonamide]
inhibition at 0.2 µM [3]: 101% | IC50 [4]: 8 nM

C=C(C)c1c(N(Cc2cc(F)c(F)c(OC)c2F)S(=O)(=O)CC)sc2ccccc12 [Compound 803, N-(3-Isopropenyl-benzo[b]thiophen-2-yl)-N-(2,4,5-trifluoro-3-methoxy-benzyl)-ethanesulfonamide]
inhibition at 0.2 µM [3]: 101% | IC50 [4]: 30.8 nM

Cc1c(N(CCC2CC2)S(=O)(=O)c2cnccc2-c2nnn[nH]2)sc2ccccc12 [Compound 804, N-(3-Methyl-benzo[b]thiophen-2-yl)-N-(cyclopropyl-ethyl)-4-(1H-tetrazol-5-yl)-pyridin-3-ylsulfonamide]
IC50 [4]: 11.1 nM

Cc1c(N(CCC2CC2)S(=O)(=O)c2ccc(-c3nnn[nH]3)nc2)sc2ccccc12 [Compound 804]
inhibition at 0.2 µM [3]: 102%

Cc1c(N(Cc2ccc(OC(F)(F)F)cc2)S(=O)(=O)c2ccc(-c3nnn[nH]3)nc2)sc2ccccc12 [Compound 805]
inhibition at 0.2 µM [3]: 103% | IC50 [4]: 2.2 nM

Cc1c(N(CCCCC(F)(F)F)S(=O)(=O)c2cnccc2-c2nnn[nH]2)sc2ccccc12 [Compound 806, N-(3-Methyl-benzo[b]thiophen-2-yl)-N-(5,5,5-trifluoro-pentyl)-4-(1H-tetrazol-5-yl)-pyridin-3-ylsulfonamide]
IC50 [4]: 13 nM

Cc1c(N(CCCCC(F)(F)F)S(=O)(=O)c2ccc(-c3nnn[nH]3)nc2)sc2ccccc12 [Compound 806]
inhibition at 0.2 µM [3]: 102%

Cc1c(N(CCC2CC2)S(=O)(=O)c2ccc(-c3noc(=O)[nH]3)nc2)sc2ccccc12 [Compound 807]
inhibition at 0.2 µM [3]: 103% | IC50 [4]: 6 nM

Cc1c(N(Cc2ccc(OC(F)(F)F)cc2)S(=O)(=O)c2cnccc2-c2noc(=O)[nH]2)sc2ccccc12 [Compound 808, N-(3-Methyl-benzo[b]thiophen-2-yl)-N-(4-trifluoromethoxy-benzyl)-4-(5-oxo-4,5-dihydro-[1,2,4]oxadiazol-3-yl)-pyrid-3-ylsulfonamide]
IC50 [4]: 0.7 nM

Cc1c(N(Cc2ccc(OC(F)(F)F)cc2)S(=O)(=O)c2ccc(-c3noc(=O)[nH]3)nc2)sc2ccccc12 [Compound 808]
inhibition at 0.2 µM [3]: 102%

Cc1c(N(Cc2ccc(OC(F)(F)F)cc2)S(=O)(=O)c2ccc(-c3nsc(=O)[nH]3)cc2)sc2ccccc12 [Compound 810, N-(3-Methyl-benzo[b]thiophen-2-yl)-N-(4-trifluoromethoxy-benzyl)-4-(5-oxo-4,5-dihydro-[1,2,4]thiadiazol-3-yl)-benzenesulfonamide]
inhibition at 0.2 µM [3]: 102% | IC50 [4]: 1 nM

Cc1c(N(CCCCC(F)(F)F)S(=O)(=O)c2ccc(-c3n[nH]c(=O)[nH]3)cc2)sc2ccccc12 [Compound 811, N-(3-Methyl-benzo[b]thiophen-2-yl)-N-(5,5,5-trifluoro-pentyl)-4-(5-oxo-4,5-dihydro-1H-[1,2,4]triazol-3-yl)-benzenesulfonamide]
inhibition at 0.2 µM [3]: 103% | IC50 [4]: 3.7 nM

Cc1c(N(CCCCC(F)(F)F)S(=O)(=O)c2ccc(-c3nn(C)c(=O)[nH]3)cc2)sc2ccccc12 [Compound 812, N-(3-Methyl-benzo[b]thiophen-2-yl)-N-(5,5,5-trifluoro-pentyl)-4-(1-methyl-5-oxo-4,5-dihydro-1H-[1,2,4]triazol-3-yl)-benzenesulfonamide]
inhibition at 0.2 µM [3]: 103% | IC50 [4]: 7.6 nM

O=S(=O)(c1ccccc1)N(Cc1ccc(F)c(C(F)(F)F)c1)c1sc2ncccc2c1Cl [Compound 813, N-(3-Chloro-thieno[2,3-b]pyridin-2-yl)-N-(4-fluoro-3-trifluoromethyl-benzyl)-benzenesulfonamide]
inhibition at 0.2 µM [3]: 90% | IC50 [4]: 28 nM

O=C(O)c1cccc(S(=O)(=O)N(Cc2ccc(F)c(C(F)(F)F)c2)c2sc3ncccc3c2Cl)c1 [Compound 814, N-(3-Chloro-thieno[2,3-b]pyridin-2-yl)-N-(4-fluoro-3-trifluoromethyl-benzyl)-3-carboxy-benzenesulfonamide]
inhibition at 0.2 µM [3]: 80% | IC50 [4]: 138 nM

O=C(O)c1ccc(S(=O)(=O)N(CCC(F)(F)F)c2sc3ncccc3c2Cl)cc1 [Compound 815, N-(3-Chloro-thieno[2,3-b]pyridin-2-yl)-N-(3,3,3-trifluoro-propyl)-4-carboxy-benzenesulfonamide]
inhibition at 0.2 µM [3]: 44%
